Laboratory results reported in PubChem BioAssay AID1648 (Sanford-Burnham Center for Chemical Genomics, 2009).
Calls of active or inactive are those of the source. The rule behind the calls is not given here.

The molecules below were run against Serine/threonine-protein kinase mTOR (Homo sapiens) (UniProt P42345) (assay: mTOR FRB domain ligand binding – biophysical, NMR (AID 1648)). Settings: NMR binding to FRB domain, chemical shift.
Serine/threonine-protein kinase mTOR (Homo sapiens), sequence (P42345 2015-2114): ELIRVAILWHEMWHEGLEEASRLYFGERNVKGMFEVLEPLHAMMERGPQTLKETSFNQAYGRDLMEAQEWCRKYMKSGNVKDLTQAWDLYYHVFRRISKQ
`COC1=CC(C)[C@@H]2C[C@H]3OC(=O)C[C@H]4C(C)=C(OC)C(=O)C([C@@]34C)[C@@]2(C)C1=O` (stereo not given in full) was tested, and the Kd was > 4 mM (inactive). For `Cc1nc(N2CCOCC2)[nH]c(=O)c1C`, the Kd was > 4 mM (inactive). For `CC(=O)c1cccc(NS(=O)(=O)N(C)C)c1`, the Kd was > 4 mM (inactive). `O=C(COc1ccccc1)N1CCc2ccccc2C1` was tested, and the Kd was > 4 mM (inactive). In the case of `Cc1nn(CC(=O)Nc2ccccn2)c(=O)c2ccccc12`, the Kd is reported as > 4 mM (inactive). In the case of `O=c1c2c(nc3nc(COc4ccccc4)[nH]n13)CCC2`, the Kd is reported as > 4 mM (inactive). For `Cc1cccc(C)c1NC(=O)CN1CCOCC1`, the Kd was > 4 mM (inactive). With `Cc1cc(N)n(-c2ccccc2)n1` the Kd was > 4 mM (inactive). For `CN1CCN(c2ccc(CN)cc2)CC1`, the Kd was > 4 mM (inactive). `Cc1cc(OC(=O)c2c(C)cc(O)cc2O)cc(O)c1C(=O)O` was tested, and the Kd was > 4 mM (inactive). For `NC(=O)Cn1nnc(-c2ccc(C(F)(F)F)cc2)n1`, the Kd was > 4 mM (inactive). With `O=S(=O)(Cc1ccccc1)N1CCCCCC1` the Kd was > 4 mM (inactive). With `CC(C(N)=O)N1C(=O)c2ccccc2C1=O` (stereo not given) the Kd was > 4 mM (inactive). With `N#CCSc1nc2ccccc2c(=O)n1-c1ccccc1` the Kd was > 4 mM (inactive). In the case of `CCOC(=O)c1c(C)nc2sccn12`, the Kd is reported as > 4 mM (inactive). In the case of `Cc1nc(-c2ccccc2)sc1CN`, the Kd is reported as > 4 mM (inactive). In the case of `CCOC(=O)c1sc(SC)c2c1CCCC2O` (stereo not given), the Kd is reported as > 4 mM (inactive). For `Cc1n[nH]c(=O)nc1N1CCN(c2ccccc2)CC1`, the Kd was > 4 mM (inactive). `C/C=C(\C)c1nnc(NC(=O)c2ccco2)s1` was tested, and the Kd was > 4 mM (inactive). In the case of `CC1(O)CC2C(CC1O)C2(C)C` (stereo not given), the Kd is reported as > 4 mM (inactive). In the case of `CCCc1cc2c(c(NC(C)=O)n1)c(=O)oc1ccccc12`, the Kd is reported as > 4 mM (inactive). In the case of `c1ccc(CCc2nc(-c3ccncc3)no2)cc1`, the Kd is reported as > 4 mM (inactive). `O=S1(=O)CCC(NC(=S)Nc2ccc(O)cc2)C1` (stereo not given) was tested, and the Kd was > 4 mM (inactive). For `O=C(NC1CCS(=O)(=O)C1)c1ccccc1` (stereo not given), the Kd was > 4 mM (inactive). For `O=C(O)CCCCCCCCCCCCC1C=CCC1` (stereo not given), the Kd was > 4 mM (inactive). With `Cc1cc(C)cc(C(=O)N2CCC(C(N)=O)CC2)c1` the Kd was > 4 mM (inactive). In the case of `O=P(O)(Cc1ccccc1)c1ccccc1`, the Kd is reported as > 4 mM (inactive). In the case of `O=C(CSc1nc2ccccc2[nH]1)N1CCCCC1`, the Kd is reported as > 4 mM (inactive). In the case of `O=C(Nc1cnccn1)c1cccs1`, the Kd is reported as > 4 mM (inactive). `NCc1n[nH]c(=O)c2ccccc12` was tested, and the Kd was > 4 mM (inactive). `c1ccc(Cc2nnc3sc(-c4ccncc4)nn23)cc1` was tested, and the Kd was > 4 mM (inactive). In the case of `Cc1cc(NC(=O)CCCn2cnc([N+](=O)[O-])n2)no1`, the Kd is reported as > 4 mM (inactive). For `O=C(CSc1ncccn1)Nc1nccs1`, the Kd was > 4 mM (inactive). `CC(=O)O[C@H]1C[C@@H](OC(C)=O)C(C)(C)C2C[C@@H](OC(C)=O)[C@]3(C)C(CC[C@@]4(C)[C@H](c5ccoc5)OC(=O)[C@H]5O[C@]543)[C@]21C` (stereo not given in full) was tested, and the Kd was > 4 mM (inactive). In the case of `C=C(C)[C@H]1CC=C(C(=O)O)CC1`, the Kd is reported as > 4 mM (inactive). With `O=C(Oc1ccc(-c2nnco2)cc1)N1CCCCC1` the Kd was > 4 mM (inactive). `COc1cc([C@@H]2c3cc4c(cc3C(OC3O[C@@H]5COC(C)O[C@H]5[C@H](O)[C@H]3O)C3COC(=O)[C@@H]32)OCO4)cc(OC)c1O` (stereo not given in full) was tested, and the Kd was > 4 mM (inactive). For `Cc1nc(CC(=O)O)c(-c2ccccc2)s1`, the Kd was > 4 mM (inactive). With `Cc1nn(-c2ccccc2)nc1CN` the Kd was > 4 mM (inactive). In the case of `Nc1ccc2c(c1)C(=O)OC2`, the Kd is reported as > 4 mM (inactive). With `CC(C)(O)[C@@H]1[C@H]2OC(=O)[C@@H]1[C@]1(O)C[C@H]3O[C@]34C(=O)O[C@H]2[C@]14C` the Kd was > 4 mM (inactive). With `NC1=C(c2ccccc2)C(=O)c2ccccc21` the Kd was > 4 mM (inactive). `CC(C)=CC1C(C(=O)O)C1(C)C` (stereo not given) was tested, and the Kd was > 4 mM (inactive). With `CCOC(=O)c1cnn2ccccc12` the Kd was > 4 mM (inactive). In the case of `O=S1(=O)C=CC(N2CCCCC2)C1` (stereo not given), the Kd is reported as > 4 mM (inactive).
